Assay results from US7754709B2 (Solvay Pharmaceuticals BV, priority 2003, dated 2010).

Legend:
Assay type in all cases: cell-based
[1] = molecular target: T1, 17β-hydroxysteroid dehydrogenase type 3 (Homo sapiens, UniProt P37058); experiment: Inhibition of 17β-HSD type 3 in MCF-7 cells stably expressing the isoenzyme (HPLC, tritium labeled androstenedione); conditions: 2 nM androstenedione, read-out: % Inhibition of the 17β-HSD enzyme type 3 (HSD3); for inhibition at 1 µM: MCF7, 1 μM compound; for inhibition at 10 µM: MCF7, 10 μM compound
T1 construct: expressed in transfected cells; host or cells: MCF-7
T1 sequence (P37058 1-310): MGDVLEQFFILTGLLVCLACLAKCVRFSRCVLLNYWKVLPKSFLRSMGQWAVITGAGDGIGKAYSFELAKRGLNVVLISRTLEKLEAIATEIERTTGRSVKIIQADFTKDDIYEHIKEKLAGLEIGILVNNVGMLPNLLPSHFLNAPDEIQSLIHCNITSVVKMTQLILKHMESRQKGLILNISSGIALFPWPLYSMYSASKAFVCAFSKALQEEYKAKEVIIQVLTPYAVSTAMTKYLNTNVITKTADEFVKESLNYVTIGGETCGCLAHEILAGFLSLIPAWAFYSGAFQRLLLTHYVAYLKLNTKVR
Text: (§1) Biological Testing Materials and Methods 1. Inhibition of the 17β-hydroxysteroid dehydrogenase type 1, type 2 and type 3 enzyme
(§2) The compounds were screened in respect of 17β-HSD enzyme activity in vitro on established M CF-7 cell lines, each stably expressing one of the respective 17β-HSD isoenzymes. The interconversion of substrate by each isoenzyme and the 17β-HSD inhibiting activity of chemical compounds in these cell lines were detected by HPLC system.
(§3) Varying amounts of the test compounds were incubated in the growth medium of the 17β-HSD expressing cells together tritium labeled substrate (2 nM estrone for 17β-HSD type 1; 2 nM estradiol for 17β-HSD type 2; and 2 nM androstenedione for 17β-HSD type 3). The medium samples were removed after exact incubation time and the reaction is stopped by trichloroacetic acid (TCA). The samples were analyzed by HPLC-coupled flow scintillation analysis.
(§4) For each enzyme type, the HSD-inhibiting activity of an individual test compound was calculated by comparing the conversion of a control sample without any test compound (referred to as “Negative Control”) to the (reduced) conversion of the test sample containing the particular compound to be tested (referred to as “Test Sample”).
(§5) Two concentrations of each compound were used. The number of the compound refers to the numbers indicated in the Experimental Section.

[2] = molecular target: T2, 17β-hydroxysteroid dehydrogenase type 1 (Homo sapiens, UniProt P14061); experiment: Inhibition of 17β-HSD type 1 in MCF-7 cells stably expressing the isoenzyme (HPLC, tritium labeled estrone); conditions: 2 nM estrone, read-out: % Inhibition of the 17β-HSD enzyme type 1 (HSD1); for inhibition at 1 µM: MCF7, 1 μM compound; for inhibition at 10 µM: MCF7, 10 μM compound
T2 construct: expressed in transfected cells; host or cells: MCF-7
T2 sequence (P14061 1-328): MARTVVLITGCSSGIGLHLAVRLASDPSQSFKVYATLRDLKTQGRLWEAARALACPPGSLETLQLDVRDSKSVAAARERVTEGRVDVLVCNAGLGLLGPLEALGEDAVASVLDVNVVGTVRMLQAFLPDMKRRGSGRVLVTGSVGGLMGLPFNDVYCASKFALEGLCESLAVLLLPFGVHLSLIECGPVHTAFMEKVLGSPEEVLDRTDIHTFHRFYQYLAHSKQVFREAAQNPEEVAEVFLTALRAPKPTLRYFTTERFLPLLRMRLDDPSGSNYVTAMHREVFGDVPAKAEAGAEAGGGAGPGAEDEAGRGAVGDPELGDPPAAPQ
Text: as §1, §2, §3, §4, §5

[3] = molecular target: T3, 17β-hydroxysteroid dehydrogenase type 2 (Homo sapiens, UniProt P37059); experiment: Inhibition of 17β-HSD type 2 in MCF-7 cells stably expressing the isoenzyme (HPLC, tritium labeled estradiol); conditions: 2 nM estradiol, read-out: % Inhibition of the 17β-HSD enzyme type 2 (HSD2); for inhibition at 1 µM: MCF7, 1 μM compound; for inhibition at 10 µM: MCF7, 10 μM compound
T3 construct: expressed in transfected cells; host or cells: MCF-7
T3 sequence (P37059 1-387): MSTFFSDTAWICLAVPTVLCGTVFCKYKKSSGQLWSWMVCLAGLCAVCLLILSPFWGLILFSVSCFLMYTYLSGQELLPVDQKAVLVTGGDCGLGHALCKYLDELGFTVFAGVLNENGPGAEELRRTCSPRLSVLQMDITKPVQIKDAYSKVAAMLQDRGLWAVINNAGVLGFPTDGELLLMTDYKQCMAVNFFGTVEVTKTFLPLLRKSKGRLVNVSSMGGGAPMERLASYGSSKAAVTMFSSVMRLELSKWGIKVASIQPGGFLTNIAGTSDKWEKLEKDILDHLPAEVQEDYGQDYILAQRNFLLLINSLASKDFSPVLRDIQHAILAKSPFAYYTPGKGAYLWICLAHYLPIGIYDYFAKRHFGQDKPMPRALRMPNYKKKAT
Text: as §1, §2, §3, §4, §5

Row | Compound | inhibition at 1 µM [1] | inhibition at 10 µM [1] | inhibition at 1 µM [2] | inhibition at 10 µM [2] | inhibition at 1 µM [3] | inhibition at 10 µM [3]
1 | CCOC(=O)C1CCc2nc3sc4c(c3c(=O)n2CC1)CCC(C=O)=C4Cl (stereo not drawn) [Compound 21, 4-Chloro-3-formyl-1,2,7,8,9,10,11,13-octahydro-13-oxo-[1]benzothieno[2′,3′: 4,5]pyrimido[1,2-a]azepine-9-carboxylic acid ethyl ester] | 20% | 87.3% | 10.9% | 33.5% | 13.1% | 32.9%
2 | CCCSC1=C(C=O)CCc2c1sc1nc3n(c(=O)c21)CCC(C(=O)OCC)CC3 (stereo not drawn) [Compound 22, 3-Formyl-1,2,7,8,9,10, 11,13-octahydro-13-oxo-4-(propylthio)-[1]benzothieno [2′,3′: 4,5]pyrimido[1,2-a]azepine-9-carboxylic acid ethyl ester] | 25.5% | 100% | 24.3% | 46.5% | 6.8% | 16.1%
3 | CCCSC1=C(C=O)CCc2c1sc1nc3n(c(=O)c21)CCC(C(=O)OC)CC3 (stereo not drawn) [Compound 23, 3-Formyl-1,2,7,8,9,10,11,13-octahydro-13-oxo-4-(propylthio)-[l]benzothieno[2′,3′: 4,5] pyrimido[1,2-a]azepine-9-carboxylic acid methyl ester] | 19.5% | 89.5% | 17.4% | 64.7% | 9.7% | 17.7%
4 | COC(=O)C1CCc2nc3sc4c(c3c(=O)n2CC1)CCC(C=O)=C4OC (stereo not drawn) [Compound 24, 3-Formyl-4-methoxy-1,2,7,8,9,10,11,13-octahydro-13-oxo-[1]benzothieno[2′,3′: 4,5]pyrimido [1,2-a]azepine-9-carboxylic acid methyl ester] | 18% | 59.6% | 24.9% | 32.3% | 3.1% | 19.3%
5 | O=c1c2c3c(sc2nc2ccccn12)CCCC3 [Compound 25, 1,2,3,4-Tetrahydro-12H-[1]benzothieno[2,3-d]pyrido[1,2-a]pyrimidin-12-one] | -3.2% | 7.9% | 6.2% | 8.7% | 14% | 33.6%
6 | O=C1CCCc2c1sc1nc3ccccn3c(=O)c21 [Compound 26, 2,3-Dihydro-12H-[l]benzothieno[2,3-d]pyrido[1,2-a]pyrimidin-4, 12(1H)-dione] | -2.1% | 0.3% | 6.4% | -0.8% | 15.1% | 16.4%

The remaining lines, values ahead:

Row | inhibition at 1 µM [1] | inhibition at 10 µM [1] | inhibition at 1 µM [2] | inhibition at 10 µM [2] | inhibition at 1 µM [3] | inhibition at 10 µM [3] | Compound
7 | 22.9% | 24.9% | 11.4% | 25.6% | 5.3% | 3.2% | CC1CCc2c(sc3nc4n(c(=O)c23)CCCCC4)C1 (stereo not drawn) [Compound 27, 3-Methyl-2,3,4,7,8,9, 10,11-octahydro-[1]benzothieno[2′,3′: 4,5]pyrimido-[1,2-a]azepin-13(1H)-one]
8 | 7.8% | 9.5% | 14.3% | 15.3% | 18.2% | 18.7% | CC1CCc2c(sc3nc4n(c(=O)c23)CCCCC4)C1=O (stereo not drawn) [Compound 28, 2,3,8,9,10,11-Hexahydro-3-methyl-[1]benzothieno[2′,3′: 4,5]pyrimido[1,2-a]azepin-4,13(1H,7H)-dione]
9 | 14.9% | 25.8% | -1% | 1.3% | 13.1% | 10.1% | CC(C)(C)C1CCc2c(sc3nc4n(c(=O)c23)CCCCC4)C1 (stereo not drawn) [Compound 29, 3-t-Butyl-2,3,4,7,8,9,10,11-octahydro-[1]benzothieno[2′,3′: 4,5]pyrimido-[1,2-a]azepin-13(1H)-one]
10 | 11.1% | 31.2% | 23.1% | 49% | 12.8% | 24.8% | O=CC1=C([S+]([O-])c2ccccc2)c2sc3nc4n(c(=O)c3c2CC1)CCCCC4 (stereo not drawn) [Compound 30, 1,2,7,8,9,10,11,13-Octahydro-13-oxo-4-(phenylsulfinyl)-[1]benzothieno[2′,3′: 4,5]-pyrimido-[1,2-a]azepine-3-carbaldehyde]
11 | -6.4% | -3.9% | 2.1% | 6.8% | -0.2% | 9.3% | O=C(O)C1=C(Cl)c2sc3nc4n(c(=O)c3c2CC1)CCCCC4 [Compound 31, 4-Chloro-1,2,7,8,9, 10,11,13-octahydro-13-oxo-[1]benzothieno[2′,3′: 4,5]pyrimido[1,2-a]azepine-3-carboxylic acid]
12 | 16.2% | 23.4% | 4.8% | 22.4% | 15.8% | 27.7% | O=c1c2c3c(sc2nc2n1CCC(CO)CC2)CCCC3 (stereo not drawn) [Compound 35, 9-(Hydroxymethyl)-2,3,4,7,8,9,10,11-octahydro-[1]benzothieno[2′,3′: 4,5]pyrimido[1,2-a]azepin-13(1H)-one]
